The nature of data set [1]: Solubility assayed in water. Type of data set: physicochemical. The note with it: water and mixtures of water with water-miscible solvents; qualitative. On the procedure: In particular, the solubility of the compounds of the present invention in comparison with hydrochloride was assayed in water and recorded.
Data set [2] is described as follows: Single dose oral pharmacokinetics comparative study of Lurasidone monohydrochloride v. dihydrochloride. It is filed as in vivo. The note with it: 10 mg/kg, mean plasma, oral gavage, male Sprague Dawley rats. Here is the method:
Lurasidone salts mean plasma PK parameters were quantified with an API 3200 LC-MS/MS system and illustrated in Table 1.
Male Sprague Dawley rats aged 6-8 weeks and weighing 180-220 g will be used for experiment. Animals will be acclimatized for a minimum period of 5 days. Overnight fasted animals were administered the test substance by oral gavage with a dose equivalent dose of 10 mg/kg of the parent compound with ready to use formulation provided and at a dose volume of 10.06 & 9.6 mL/kg b.w. With mild inhalation anesthesia (Isoflurane), blood samples (200-250 μL) were collected by retro-orbital route at specified time points. Lurasidone hydrochloride and dihydrochloride samples were administered by oral route at a dose volume of 10.06 & 9.6 mL/kg body weight respectively. The actual dosage volume for each animal were calculated based on the fasted body weight. All the animals were administered a single dose on the day of experiment. Blood samples were collected in pre-labeled centrifuge tubes containing anticoagulant (K2EDTA). Blood sampling time points for both the groups were as follows Group 1 & 2—Subgroup 1 (n=5)—0.08, 0.16, 0.33, 0.5, 0.67, 0.83, 1.00 & Subgroup 2 (n=5)—1.5, 2, 3, 6, 12, 18, 24 h. All the animals were administered a single dose on the day of experiment. Blood samples were centrifuged at 4000 rpm at 4° C. for 10 minutes and the corresponding plasma samples were harvested into pre-labeled tubes. Plasma samples will be stored at −80° C. until analysis. The blood samples were centrifuged at 4000 rpm for 10 minutes at 4° C. and the corresponding plasma samples were transferred to clean pre-labeled tubes and stored at −80° C. until analysis.

Data set [3] in a line: Stability by storage under accelerated stability testing conditions. As to conditions: storage at 40° C., 75% RH and 50° C., 90% RH. Type of data set: physicochemical.
A short description of data set [4]: Comparative solubility study in McIlvaine Buffer pH 3.8. Type of data set: physicochemical. Here is the method:
The solubility study was performed for the dihydrochloride salt of the present invention using the McIlvaine Buffer pH 3.8.

For data set [5] the following is noted: cited from earlier work.
For data set [6] the following is noted: in vivo; cited from earlier work.
A short description of data set [7]: Comparative solubility study in McIlvaine Buffer pH 3.8. It is filed as physicochemical. This is another data set of the same source.
Setting [8] is: male, Sprague Dawley, rat, plasma, po.
[9] abbreviates: listed as Monohydrochloride, hydrochloride.

Values joined by “and” are separate entries in the source; they are usually repeats but may differ in a detail not shown here. Identical values can stand only once. Counter-ions that a name gives are not always drawn. Like-named read-outs stand apart in the source and are kept apart here.

What is called AUC(0-inf) is the area under the concentration-time curve extrapolated to infinity. The low end stands for low exposure, the high end for high exposure. A word on the AUC(0-t): it is the area under the concentration-time curve up to a stated or last time point. Low readings indicate low exposure, high ones high exposure. By Cmax is commonly meant the highest concentration seen after dosing. As for `O=C1[C@@H]2[C@H]3CC[C@H](C3)[C@@H]2C(=O)N1C[C@@H]1CCCC[C@H]1CN1CCN(c2nsc3ccccc23)CC1` [Di HCl Salt, (3aR,4S,7R,7aS)-2-{(1R,2R)-2-[4-(1,2-benzisothiazol-3-yl)piperazin-1-ylmethyl]cyclohexylmethyl}hexahydro-4,7-methano-2H-isoindole-1,3-dione dihydrochloride dihydrate], in data set [1], the solubility in water entry is “excellent solubility”. In data set [2] (setting [8]), this compound had an AUC(0-inf) of 0.577 µg·h/mL and an AUC(0-t) of 0.57 µg·h/mL. Besides, the Cmax in data set [2] (male, Sprague Dawley, rat, plasma, po, read-out: Cmax) was determined as 0.659 µg/mL. For the same compound, in data set [2] (dihydrochloride dihydrate), the AUCextrap is given as 1.29%, the MRTlast worked out at 1.05 h and the T1/2 worked out at 1.07 h. The stability profile entry in data set [3] is “excellent stability profile”. Further, the “Solubility (mg/ml) Avg.” value in data set [4] (average of sample 1 and 2, dihydrochloride dihydrate) was 0.6472 mg/mL and 0.9020 mg/mL. The “Solubility (mg/ml) Sample 1” value in data set [4] (sample 1, dihydrochloride dihydrate) is 0.7220 mg/mL and 0.9548 mg/mL. In addition, the “Solubility (mg/ml) Sample 2” value in data set [4] (sample 2, dihydrochloride dihydrate) is 0.5724 mg/mL and 0.8498 mg/mL.

Broadly, the MRT last is a mean duration of stay, worked out from the concentration-time curve. The half-life is the time needed for the level to fall by half in the phase considered. Read a high half-life as slow loss. One may read the Tmax as the time from dosing to the highest level. In data set [2] (setting [8]), `O=C1[C@@H]2[C@H]3CC[C@H](C3)[C@@H]2C(=O)N1C[C@@H]1CCCC[C@H]1CN1CCN(c2nsc3ccccc23)CC1` [Mono HCl Salt, (3aR,4S,7R,7aS)-2-[((1R,2R)-2-{[4-(1,2-benzisothiazol-3-yl)-piperazin-1-yl]methyl}cyclohexyl)methyl]hexahydro-1H-4,7-methanisoindol-1,3-dione hydrochloride] had an MRT last of 0.95 h and a half-life of 1.19 h. In data set [2] (setting [9]), this compound gave an AUCextrap of 1.37%, an AUCinf of 0.35732 µg·h/mL, an AUClast of 0.35241 µg·h/mL and a Cmax of 0.41239 µg/mL. In data set [2] (rat), the Tmax came out at 0.33 h. Besides, the “solubility in 0.1 N HCl” value in data set [5] (0.1 N HCl) is on record as “practically insoluble”. Besides, in data set [5] (water), the solubility in water entry is given as “very slightly soluble”. The bioavailability result in data set [6] was “less than 12%”. For the same compound, in data set [7] (average of sample 1 and 2, hydrochloride), the “Solubility (mg/ml) Avg.” value is 0.2126 mg/mL. Further, in data set [7] (listed as Lurasidone hydrochloride), the solubility result was “less than 0.212 mg/ml”. Also, in data set [7] (listed as mono hydrochloride salt), the solubility result is reported as “around 0.212 mg/ml”. The “Solubility (mg/ml) Sample 1” value in data set [7] (sample 1, hydrochloride) was 0.2104 mg/mL. Besides, the “Solubility (mg/ml) Sample 2” value in data set [7] (sample 2, hydrochloride) worked out at 0.2148 mg/mL.

Values taken from patent US9580414B2, “Salts and hydrates of antipsychotics” (SHASUN PHARMACEUTICALS LIMITED, priority 2012, dated 2017).
